In BigSolDB 2.1:

Cc1ccc(C(=O)O)cc1
solubility (mole fraction)
Details	in acetic acid	in methanol
283.15 K	0.043	0.02
288.15 K	0.048	0.021
293.15 K	0.053	0.023
298.15 K	0.059	0.027
303.15 K	0.064	0.029
308.15 K	0.07	0.033
313.15 K	0.077	0.038
318.15 K	0.085	0.041
323.15 K	0.095	0.047
328.15 K	0.103	0.054
333.15 K	0.113	0.061
